The text below walks through data of US11802111B2, “Cyclobutyl amide monoacylglycerol lipase modulators” (Janssen Pharmaceutica NV, priority 2020, dated 2023).

The structures appear in SMILES notation.

Chain of human MGL from HeLa cells (Q99685 whole entry): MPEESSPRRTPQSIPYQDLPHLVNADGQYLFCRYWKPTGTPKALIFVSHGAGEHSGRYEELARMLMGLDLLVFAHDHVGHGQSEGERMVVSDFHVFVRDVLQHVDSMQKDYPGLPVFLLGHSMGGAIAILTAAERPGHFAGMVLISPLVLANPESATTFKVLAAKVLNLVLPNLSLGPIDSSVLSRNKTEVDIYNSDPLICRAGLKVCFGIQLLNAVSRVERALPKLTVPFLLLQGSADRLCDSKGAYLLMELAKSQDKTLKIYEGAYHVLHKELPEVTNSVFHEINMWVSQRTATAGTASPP

The assay addresses human MGL from HeLa cells (Homo sapiens (Human), UniProt Q99685). Put plainly: MGL in vitro activity assay ([glycerol-1,3-3H]-oleoyl glycerol hydrolysis, activated carbon filtration). The note with it: 300 nM [Glycerol-1,3-3H]-oleoyl glycerol, one hour. It counts as biochemical. The essentials: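 Activity measured as tritium in the flow-through after activated carbon filtration of a 1 h reaction containing 300 nM 3H-oleoyl glycerol, compound and HeLa-derived human MGL. Compounds screened at 10 μM; IC50 series start at an empirically chosen highest concentration.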
As a reminder, the IC50 is the concentration that gives 50% inhibition. `CC(C)Oc1nc(CC2CC3(C2)CN(C(=O)[C@H]2C[C@@](C)(O)C2)C3)ccc1C(F)(F)F` [Example 282, ((1s,3s)-3-Hydroxy-3-methylcyclobutyl)(6-((6-isopropoxy-5-(trifluoromethyl)pyridin-2-yl)methyl)-2-azaspiro[3.3]heptan-2-yl)methanone] showed an IC50 of 1 nM.
On to `Cn1nc(CC2CC3(C2)CN(C(=O)[C@H]2C[C@@](C)(O)C2)C3)cc1C(F)(F)F` [Example 283, ((1s,3s)-3-Hydroxy-3-methylcyclobutyl)(6-((1-methyl-5-(trifluoromethyl)-1H-pyrazol-3-yl)methyl)-2-azaspiro[3.3]heptan-2-yl)methanone], for which the IC50 amounted to 116 nM.
The value for `C[C@]1(O)C[C@@H](C(=O)N2CC3(CC(Cc4ccc5ccnn5c4)C3)C2)C1` [Example 284, ((1s,3s)-3-Hydroxy-3-methylcyclobutyl)(6-(pyrazolo[1,5-c]pyridin-6-ylmethyl)-2-azaspiro[3.3]heptan-2-yl)methanone] was 122 nM.
The value for `C[C@]1(O)C[C@@H](C(=O)N2CC3(CC(Cc4cccc5ccnn45)C3)C2)C1` [Example 285, ((1s,3s)-3-Hydroxy-3-methylcyclobutyl)(6-(pyrazolo[1,5-c]pyridin-7-ylmethyl)-2-azaspiro[3.3]heptan-2-yl)methanone] was 47 nM.
In the case of `C[C@]1(O)C[C@@H](C(=O)N2CC3(CC(Cn4ccc5cccnc54)C3)C2)C1` [Example 286, (6-((1H-Pyrrolo[2,3-b]pyridin-1-yl)methyl)-2-azaspiro[3.3]heptan-2-yl)((1s,3s)-3-hydroxy-3-methylcyclobutyl)methanone] it was 90 nM; in that of `Cc1cc2cccnc2n1CC1CC2(C1)CN(C(=O)[C@H]1C[C@@](C)(O)C1)C2` [Example 287, ((1s,3s)-3-Hydroxy-3-methylcyclobutyl)(6-((2-methyl-1H-pyrrolo[2,3-b]pyridin-1-yl)methyl)-2-azaspiro[3.3]heptan-2-yl)methanone], 67 nM.
For `Cc1ccc2ccn(CC3CC4(C3)CN(C(=O)[C@H]3C[C@@](C)(O)C3)C4)c2n1` [Example 288, ((1s,3s)-3-Hydroxy-3-methylcyclobutyl)(6-((6-methyl-1H-pyrrolo[2,3-b]pyridin-1-yl)methyl)-2-azaspiro[3.3]heptan-2-yl)methanone], the IC50 came to 26 nM. Against the preceding compound, the IC50 is about 2.6-fold lower.
The value for `CC(C)n1ccc2ccc(CC3CC4(C3)CN(C(=O)C3CC(C)(O)C3)C4)nc21` (centres unmarked) [Example 289, ((1s,3s)-3-Hydroxy-3-methylcyclobutyl)(6-((1-isopropyl-1H-pyrrolo[2,3-b]pyridin-6-yl)methyl)-2-azaspiro[3.3]heptan-2-yl)methanone] was 8.2 nM; that for `CC(C)c1ccc2ccn(CC3CC4(C3)CN(C(=O)[C@H]3C[C@@](C)(O)C3)C4)c2n1` [Example 290, ((1s,3s)-3-Hydroxy-3-methylcyclobutyl)(6-((6-isopropyl-1H-pyrrolo[2,3-b]pyridin-1-yl)methyl)-2-azaspiro[3.3]heptan-2-yl)methanone] was 16 nM; that for `Cc1cn(C)c2nc(CC3CC4(C3)CN(C(=O)[C@H]3C[C@@](C)(O)C3)C4)ccc12` [Example 291, (6-((1,3-Dimethyl-1H-pyrrolo[2,3-b]pyridin-6-yl)methyl)-2-azaspiro[3.3]heptan-2-yl)((1s,3s)-3-hydroxy-3-methylcyclobutyl)methanone] was 3.8 nM.
In the case of `Cc1cc2ccc(CC3CC4(C3)CN(C(=O)[C@H]3C[C@@](C)(O)C3)C4)nc2n1C` [Example 292, (6-((1,2-Dimethyl-1H-pyrrolo[2,3-b]pyridin-6-yl)methyl)-2-azaspiro[3.3]heptan-2-yl)((1s,3s)-3-hydroxy-3-methylcyclobutyl)methanone] it was 19 nM.
`Cn1cc(F)c2ccc(CC3CC4(C3)CN(C(=O)[C@H]3C[C@@](C)(O)C3)C4)nc21` [Example 293, (6-((3-Fluoro-1-methyl-1H-pyrrolo[2,3-b]pyridin-6-yl)methyl)-2-azaspiro[3.3]heptan-2-yl)((1s,3s)-3-hydroxy-3-methylcyclobutyl)methanone] registered a 50% inhibitory concentration (IC50) of 10 nM.
In the case of `C[C@]1(O)C[C@@H](C(=O)N2CC3(CC(Cn4c(C(F)(F)F)cc5cccnc54)C3)C2)C1` [Example 294, ((1s,3s)-3-Hydroxy-3-methylcyclobutyl)(6-((2-(trifluoromethyl)-1H-pyrrolo[2,3-b]pyridin-1-yl)methyl)-2-azaspiro[3.3]heptan-2-yl)methanone], the IC50 was determined as 10 nM.
Consider `C[C@]1(O)C[C@@H](C(=O)N2CC3(CC(Cn4ccc5ccc(C(F)(F)F)nc54)C3)C2)C1` [Example 295, ((1s,3s)-3-Hydroxy-3-methylcyclobutyl)(6-((6-(trifluoromethyl)-1H-pyrrolo[2,3-b]pyridin-1-yl)methyl)-2-azaspiro[3.3]heptan-2-yl)methanone], for which half-maximal inhibition (IC50) required 20 nM.
In the case of `Cn1cc(C(F)(F)F)c2ccc(CC3CC4(C3)CN(C(=O)[C@H]3C[C@@](C)(O)C3)C4)nc21` [Example 296, ((1s,3s)-3-Hydroxy-3-methylcyclobutyl)(6-((1-methyl-3-(trifluoromethyl)-1H-pyrrolo[2,3-b]pyridin-6-yl)methyl)-2-azaspiro[3.3]heptan-2-yl)methanone] it was 0.29 nM; in that of `C[C@]1(O)C[C@@H](C(=O)N2CC3(CC(Cc4ccc5ccn(CC(F)(F)F)c5n4)C3)C2)C1` [Example 297, ((1s,3s)-3-Hydroxy-3-methylcyclobutyl)(6-((1-(2,2,2-trifluoroethyl)-1H-pyrrolo[2,3-b]pyridin-6-yl)methyl)-2-azaspiro[3.3]heptan-2-yl)methanone], 21 nM.
In the case of `Cn1ccc2cnc(CC3CC4(C3)CN(C(=O)[C@H]3C[C@@](C)(O)C3)C4)cc21` [Example 298, ((1s,3s)-3-Hydroxy-3-methylcyclobutyl)(6-((1-methyl-1H-pyrrolo[3,2-c]pyridin-6-yl)methyl)-2-azaspiro[3.3]heptan-2-yl)methanone] it was 775 nM.
In the case of `Cn1ncc2cccc(CC3CC4(C3)CN(C(=O)[C@H]3C[C@@](C)(O)C3)C4)c21` [Example 299, ((1s,3s)-3-Hydroxy-3-methylcyclobutyl)(6-((1-methyl-1H-indazol-7-yl)methyl)-2-azaspiro[3.3]heptan-2-yl)methanone] it was 70 nM; in that of `Cc1cc(CC2CC3(C2)CN(C(=O)[C@H]2C[C@@](C)(O)C2)C3)cc2c1cnn2C` [Example 300, (6-((1,4-Dimethyl-1H-indazol-6-yl)methyl)-2-azaspiro[3.3]heptan-2-yl)((1s,3s)-3-hydroxy-3-methylcyclobutyl)methanone], 20 nM.
In turn, `Cc1cc2cnn(C)c2cc1CC1CC2(C1)CN(C(=O)[C@H]1C[C@@](C)(O)C1)C2` [Example 301, (6-((1,5-Dimethyl-1H-indazol-6-yl)methyl)-2-azaspiro[3.3]heptan-2-yl)((1s,3s)-3-hydroxy-3-methylcyclobutyl)methanone] showed an IC50 of 36 nM.
As for `Cc1nn(C)c2cc(CC3CC4(C3)CN(C(=O)[C@H]3C[C@@](C)(O)C3)C4)ccc12` [Example 302, (6-((1,3-Dimethyl-1H-indazol-6-yl)methyl)-2-azaspiro[3.3]heptan-2-yl)((1s,3s)-3-hydroxy-3-methylcyclobutyl)methanone], the IC50 amounted to 21 nM.
Turning to `Cn1ncc2c(F)cc(CC3CC4(C3)CN(C(=O)[C@H]3C[C@@](C)(O)C3)C4)cc21` [Example 303, (6-((4-Fluoro-1-methyl-1H-indazol-6-yl)methyl)-2-azaspiro[3.3]heptan-2-yl)((1s,3s)-3-hydroxy-3-methylcyclobutyl)methanone], the midpoint of inhibition, the IC50, lay at 29 nM.
The value for `Cn1ncc2cc(F)c(CC3CC4(C3)CN(C(=O)[C@H]3C[C@@](C)(O)C3)C4)cc21` [Example 304, (6-((5-Fluoro-1-methyl-1H-indazol-6-yl)methyl)-2-azaspiro[3.3]heptan-2-yl)((1s,3s)-3-hydroxy-3-methylcyclobutyl)methanone] was 13 nM; that for `Cn1ncc2ccc(CC3CC4(C3)CN(C(=O)[C@H]3C[C@@](C)(O)C3)C4)c(F)c21` [Example 305, (6-((7-Fluoro-1-methyl-1H-indazol-6-yl)methyl)-2-azaspiro[3.3]heptan-2-yl)((1s,3s)-3-hydroxy-3-methylcyclobutyl)methanone] was 28 nM; that for `CC(C)n1ncc2ccc(CC3CC4(C3)CN(C(=O)[C@H]3C[C@@](C)(O)C3)C4)cc21` [Example 306, ((1s,3s)-3-Hydroxy-3-methylcyclobutyl)(6-((1-isopropyl-1H-indazol-6-yl)methyl)-2-azaspiro[3.3]heptan-2-yl)methanone] was 23 nM.
The value for `C[C@]1(O)C[C@@H](C(=O)N2CC3(CC(Cc4ccc5cnn(CC(F)(F)F)c5c4)C3)C2)C1` [Example 307, ((1s,3s)-3-Hydroxy-3-methylcyclobutyl)(6-((1-(2,2,2-trifluoroethyl)-1H-indazol-6-yl)methyl)-2-azaspiro[3.3]heptan-2-yl)methanone] was 431 nM; that for `CC(C)n1cc2ccc(CC3CC4(C3)CN(C(=O)[C@H]3C[C@@](C)(O)C3)C4)cc2n1` [Example 308, ((1s,3s)-3-Hydroxy-3-methylcyclobutyl)(6-((2-isopropyl-2H-indazol-6-yl)methyl)-2-azaspiro[3.3]heptan-2-yl)methanone] was 117 nM; that for `Cc1nc(OC2CC3(C2)CN(C(=O)[C@H]2C[C@@](C)(O)C2)C3)ccc1C(F)(F)F` [Example 309, ((1s,3s)-3-Hydroxy-3-methylcyclobutyl)(6-((6-methyl-5-(trifluoromethyl)pyridin-2-yl)oxy)-2-azaspiro[3.3]heptan-2-yl)methanone] was 130 nM.
As to `Cn1ccc2ccc(C(F)(F)C3CC4(C3)CN(C(=O)[C@H]3C[C@@](C)(O)C3)C4)nc21` [Example 317, (6-(Difluoro(1-methyl-1H-pyrrolo[2,3-b]pyridin-6-yl)methyl)-2-azaspiro[3.3]heptan-2-yl)((1s,3s)-3-hydroxy-3-methylcyclobutyl)methanone], the concentration for half-maximal inhibition (IC50) came out at 69 nM. This IC50 lies about 1.9-fold lower than the previous one.
